For one assay, the target named is T1, GST-Xa-hAAK1 (Homo sapiens, UniProt Q2M2I8).
T1 construct: made in house
Kind of assay: AAK1 Kinase Assay (Caliper LabChip, fluoresceinated peptide substrate). Type of assay: biochemical. As to conditions: ATP 22 μM. How it is done: The assays were performed in U-bottom 384-well plates. The final assay volume was 30 μl prepared from 15 μl additions of enzyme and substrates (fluoresceinated peptide (5-FAM)-Aha-[…]-NH2 and ATP) and test compounds in assay buffer (10 mM Tris-HCL pH 7.4, 10 mM MgCl2, 0.01% Tween-20 and 1.0 mM DTT). The reactions were initiated by the combination of bacterially expressed, GST-Xa-hAAK1 with substrates and test compounds. The reactions were incubated at room temperature for 3 hours and terminated by adding 60 μl of 35 mM EDTA buffer to each sample. The reactions were analyzed on the Caliper LabChip 3000 (Caliper, Hopkinton, Mass.) by electrophoretic separation of the fluorescent substrate and phosphorylated product. […] The final concentration of reagents in the assays are ATP, 22 μM; (5-FAM)-Aha-[…]-NH2, 1.5 μM; GST-Xa-hAAK1, 3.5 nM; and DMSO, 1.6%. Dose response curves were generated to determine the concentration required inhibiting 50% of kinase activity (IC50). Compounds were dissolved at 10 mM in dimethylsulfoxide (DMSO) and evaluated at eleven concentrations. IC50 values were derived by non-linear regression analysis.

The next assay deals with T2, AAK1 (full length human) (Homo sapiens, UniProt Q2M2I8).
T2 construct: HA; expressed in transfected cells; host or cells: HEK293F
T2 sequence (Q2M2I8 whole entry): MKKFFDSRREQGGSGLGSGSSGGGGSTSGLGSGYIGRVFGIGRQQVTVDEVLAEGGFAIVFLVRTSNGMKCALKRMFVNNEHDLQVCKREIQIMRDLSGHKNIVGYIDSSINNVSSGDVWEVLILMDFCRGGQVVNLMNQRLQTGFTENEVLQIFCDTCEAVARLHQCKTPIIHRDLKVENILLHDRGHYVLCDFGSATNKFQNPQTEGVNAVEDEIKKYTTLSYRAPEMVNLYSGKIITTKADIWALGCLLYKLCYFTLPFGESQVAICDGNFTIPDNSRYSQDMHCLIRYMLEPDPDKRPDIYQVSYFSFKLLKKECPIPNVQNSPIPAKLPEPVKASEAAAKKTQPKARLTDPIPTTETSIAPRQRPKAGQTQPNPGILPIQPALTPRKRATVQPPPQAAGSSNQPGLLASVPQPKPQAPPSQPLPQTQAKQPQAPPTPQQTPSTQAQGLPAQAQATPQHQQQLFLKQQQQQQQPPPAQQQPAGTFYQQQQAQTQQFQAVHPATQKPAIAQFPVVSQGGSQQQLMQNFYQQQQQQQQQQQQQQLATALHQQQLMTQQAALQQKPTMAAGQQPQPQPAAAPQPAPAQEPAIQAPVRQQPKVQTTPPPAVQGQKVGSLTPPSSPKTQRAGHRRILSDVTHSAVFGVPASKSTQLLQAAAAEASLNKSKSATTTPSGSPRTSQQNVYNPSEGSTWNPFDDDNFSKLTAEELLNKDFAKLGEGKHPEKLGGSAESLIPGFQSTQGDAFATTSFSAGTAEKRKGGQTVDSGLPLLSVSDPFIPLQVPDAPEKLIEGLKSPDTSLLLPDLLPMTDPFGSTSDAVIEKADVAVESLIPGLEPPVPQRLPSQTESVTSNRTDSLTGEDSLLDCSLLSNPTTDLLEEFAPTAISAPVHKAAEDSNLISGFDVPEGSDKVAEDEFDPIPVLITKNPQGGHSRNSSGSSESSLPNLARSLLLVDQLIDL
Description: HEK281 Cell-Based Assay (HEK293F cells transfected with AAK1 and AP2M1; phospho-mu2 Western blot). As to conditions: 3 h. How it is done:
HEK293F cells were cultured in media containing DMEM (Gibco, cat. #11965), 10% FBS (SAFC Biosciences, cat. #12103C), 1× GPS (glutamine, penicillin and streptomycin). On day one, cells were plated on a 10 cm dish so that they are ˜80% confluent at time of transfection. Roughly 12 million cells were in a 10 cm dish at time of transfection. On day two, each dish was transfected with 48 ug DNA and 144 μl Lipofectamine 2000 (Invitrogen, cat. #11668-019). The DNA was comprised of a mixture (per 10 cm dish) containing 3 ug AAK1/HA/pIRES (full length human, NCBI accession no. NP_055726.2), 45 μg Flag/AP2MI/pcDNA (full length human), and 1.5 ml OPTI-MEM. The Lipofectamine 2000 is made up of a mixture (per 10 cm dish) containing 144 μl Lipofectamine 2000 and 1.5 ml OPTI-MEM. Each mixture was transferred to individual 15 ml tubes and incubated at RT for 5 minutes, and then the two mixes were combined and incubated at RT for 20 minutes. Growth media was then aspirated from each 10 cm plate and replaced with 10 ml of DMEM+10% FBS (no GPS). Finally, 3 ml DNA/Lipofectamine mix was added to each 10 cm dish and mix gently followed by incubate of plate overnight at 37° C. and 5% CO2.
On day three, compounds were diluted in 100% DMSO at 1000× final concentration, followed by 3-fold serial dilutions for a total of 5 concentrations tested. Four compounds were tested per 10 cm dish. One ul of each compound dilution was then pipetted into a deep-well, 96-well plate, followed by addition of 500 μl DMEM+0.5% FBS into each well for a 2× final concentration of each compound. Cells were resuspended in a 10 cm dish by simple pipetting (HEK293 cells come off the plate that easy at this point) and then transferred to a 50 ml conical tube and pelleted by centrifugation at 1000 rpm for 5 min. Cell pellets were then resuspended in 2.75 ml DMEM+0.5% FBS per 10 cm dish and 100 μl of cell suspension transferred into each well of 96-well TC plate. Finally, 100 μl of 2× compound diluted in DMEM+0.5% FBS was then added into wells containing cell suspension for a 1× final concentration. Plates were then incubated at 37° C. and 5% CO2 for 3 hours followed by transferring of cell suspensions from each well into 12-tube PCR strips. The PCR strips were spun in a tip rack at 1000 rpm for 5 minutes to pellet cells and media was then removed by pipetting without disturbing the cell pellet.
To prepare for Western Blot analysis, cell pellets were resuspend in 40 ul 1× LDS-PAGE sample buffer (Invitrogen, cat. #NP0008)+2× Halt phophatase and protease inhibitor cocktail (Thermo Scientific, cat. #1861284), followed by sonicating each with microtip sonicator set at 5 for 8-10 seconds. Five ul of 10× NuPage Sample Reducing Agent (with […]) was to each sample followed by heat denaturing at 70C for 10 min on PCR machine. A total of 10 μl per sample was loaded into each lane of a 4-20% Tris-Glycine Criterion 26-well gel (Biorad, cat. #345-0034) for the phospho-mu2 blot and 10 μl per lane in a 4-12% Bis-Tris (+MES buffer) NuPAGE 26-well gel (Invitrogen, cat. #WG1403BX10) for the mu2 blot. For controls, 2 ng of phospho-mu2 or 20 ng mu2/Flag proteins were loaded in the last well of each gel. After SDS-PAGE, samples on each gel were transferred to PVDF membrane using an iBlot and membranes were blocked for one hour in TBST+5% milk, followed by wash 3× for 5-10 min with TBST. Criterion gels were probed with rabbit anti-phospho-mu2 (1:5000; a rabbit polyclonal antibody produced by New England Peptide and affinity purified at Lexicon) in TBST+5% BSA, whereas, NuPAGE gels were probed with mouse anti-Flag (1:500; Sigma, cat. #F1804) in TBST+5% milk, and these primary antibodies were incubated overnight at 4° C. on a rocker. […]
For orientation: Immunoblotting shows a protein as a band on a membrane.

pIC50: −log10 of the molar value.

T1 sequence (Q2M2I8 whole entry): as above

The pIC50 is the negative decadic logarithm of the IC50, by convention in mol/L. Consider `CC(C)C[C@H](N)COc1ccc2c(c1)OC(C)c1cnccc1-2` (mixture of isomers) [Example 6, (2S)-4-methyl-1-(5-methyl-5H-chromeno[3,4-c]pyridin-8-yloxy)pentan-2-amine], for which, on GST-Xa-hAAK1 (listed as IC50 ranges), the negative logarithm of the IC50 (pIC50) was 8.00 to 9.00. Regarding `CC(C)C[C@H](N)COc1ccc2c(c1)OC(C1CC1)c1cnccc1-2` (mixture of isomers) [Example 8, (2S)-1-(5-cyclopropyl-5H-chromeno[3,4-c]-pyridin-8-yloxy)-4-methylpentan-2-amine], the pIC50 at GST-Xa-hAAK1 (listed as IC50 ranges) and on AAK1 (full length human) (listed as IC50 ranges) was 7.00 to 8.00 in each case. With `CCC1Oc2cc(OC[C@@H](N)CC(C)C)ccc2-c2ccncc21` (mixture of isomers) [Example 10, (2S)-1-(5-ethyl-5H-chromeno[3,4-c]pyridin-8-yloxy)-4-methylpentan-2-amine], the pIC50 at GST-Xa-hAAK1 (listed as IC50 ranges) and against AAK1 (full length human) (listed as IC50 ranges) was 7.00 to 8.00 in each case.

With `CC(C)C[C@H](N)COc1cc2c(cc1Br)-c1ccncc1C(C)O2` (mixture of isomers) [Example 21, (2S)-1-(9-bromo-5-methyl-5H-chromeno[3,4-c]pyridin-8-yloxy)-4-methylpentan-2-amine], the negative logarithm of the IC50 (pIC50) is 8.00 to 9.00 at GST-Xa-hAAK1 (listed as IC50 ranges) and > 9.00 against AAK1 (full length human) (listed as IC50 ranges).

For the compound `CC(C)C[C@H](N)COc1cc2c(cc1C#N)-c1ccncc1C(C)O2` (mixture of isomers) [Example 22, 8-((S)-2-amino-4-methylpentyloxy)-5-methyl-5H-chromeno[3,4-c]pyridine-9-carbonitrile], the negative logarithm of the IC50 (pIC50) was 8.00 to 9.00 at GST-Xa-hAAK1 (listed as IC50 ranges) and > 9.00 at AAK1 (full length human) (listed as IC50 ranges).

Consider `CC1Oc2cc(OC[C@@H](N)CC3CCCC3)ccc2-c2ccncc21` (mixture of isomers) [Example 24, (2S)-1-cyclopentyl-3-(5-methyl-5H-chromeno[3,4-c]pyridin-8-yloxy)propan-2-amine], for which the negative-log IC50 (pIC50) at GST-Xa-hAAK1 (listed as IC50 ranges) and against AAK1 (full length human) (listed as IC50 ranges) was 7.00 to 8.00 throughout. Turning to `CC(C)C[C@H](N)COc1cc2c(cc1Cl)-c1ccncc1C(C(F)(F)F)O2` (mixture of isomers) [Example 27, (2S)-1-((9-chloro-5-(trifluoromethyl)-5H-chromeno[3,4-c]pyridin-8-yl)oxy)-4-methylpentan-2-amine], the pIC50 on GST-Xa-hAAK1 (listed as IC50 ranges) and on AAK1 (full length human) (listed as IC50 ranges) was 8.00 to 9.00 each time.

As for `CC(C)C[C@H](N)COc1cc2c(cc1Br)-c1ccncc1C(C(F)(F)F)O2` (mixture of isomers) [Example 28, (2S)-1-((9-bromo-5-(trifluoromethyl)-5H-chromeno[3,4-c]pyridin-8-yl)oxy)-4-methylpentan-2-amine], the negative-log IC50 (pIC50) on GST-Xa-hAAK1 (listed as IC50 ranges) and against AAK1 (full length human) (listed as IC50 ranges) was 8.00 to 9.00 in each case. Consider `CC(C)C[C@@H](N)COc1ccc2c(c1)OC(C)c1cnccc1-2` (single isomer, unassigned) [Example 7b], for which the pIC50 on GST-Xa-hAAK1 (listed as IC50 ranges) was 7.00 to 8.00. Same read-out and setting: then `CC(C)C[C@H](N)COc1ccc2c(c1)OC(C1CC1)c1cnccc1-2` (single isomer, unassigned) [Example 8a], with 6.00 to 7.00.

`CC(C)C[C@@H](N)COc1ccc2c(c1)OC(C1CC1)c1cnccc1-2` (single isomer, unassigned) [Example 9b]: the negative-log IC50 (pIC50) against AAK1 (full length human) (numeric values) is < 6.52. Consider `CCC1Oc2cc(OC[C@@H](N)CC(C)C)ccc2-c2ccncc21` (single isomer, unassigned) [Example 10b], for which the negative logarithm of the IC50 (pIC50) at GST-Xa-hAAK1 (listed as IC50 ranges) is 7.00 to 8.00.

Regarding `CC(C)C[C@H](N)COc1cc2c(cc1I)-c1ccncc1C(C)O2` (single isomer, unassigned) [Example 31a], the negative-log IC50 (pIC50) at GST-Xa-hAAK1 (listed as IC50 ranges) is 8.00 to 9.00. With `CC(C)C[C@H](N)COc1cc2c(cc1I)-c1ccncc1C(C)O2` (single isomer, unassigned) [Example 31b], the negative logarithm of the IC50 (pIC50) at GST-Xa-hAAK1 (listed as IC50 ranges) was 8.00 to 9.00.

With `CC(C)C[C@@H](N)COc1ccc2c(c1)OCc1cnccc1-2` [Example 1, (R)-1-(5H-chromeno[3,4-c]pyridin-8-yloxy)-4-methylpentan-2-amine], the pIC50 at GST-Xa-hAAK1 (numeric values) was 7.70. On to `N[C@@H](COc1ccc2c(c1)OCc1cnccc1-2)Cc1ccccc1` [Example 2, (R)-1-(5H-chromeno[3,4-c]pyridin-8-yloxy)-3-phenylpropan-2-amine], for which the pIC50 at GST-Xa-hAAK1 (listed as IC50 ranges) is 6.00 to 7.00. With `CC[C@@H](N)COc1ccc2c(c1)OCc1cnccc1-2` [Example 3, (R)-1-(5H-chromeno[3,4-c]pyridin-8-yloxy)butan-2-amine], on GST-Xa-hAAK1 (listed as IC50 ranges), the pIC50 is 6.00 to 7.00. On the same count and under the same terms, then `CC[C@H](N)COc1ccc2c(c1)OCc1cnccc1-2` [Example 4, (S)-1-(5H-chromeno[3,4-c]pyridin-8-yloxy)butan-2-amine], with 7.00 to 8.00; and `CC(C)C[C@@H](N)COc1ccc2c(c1)OC(C1CC1)c1cnccc1-2` (stereo partly shown) [Example 9], with 6.00 to 7.00. On the same count and under the same terms, then `CC(C)C[C@H](N)COc1ccc2c(c1)OC1(COC1)c1cnccc1-2` [Example 19, (S)-4-methyl-1-(spiro[chromeno[3,4-c]pyridine-5,3′-oxetan]-8-yloxy)pentan-2-amine], with 6.00 to 7.00; and `CC(C)C[C@H](N)COc1ccc2c(c1)OC(CO)(CCl)c1cnccc1-2` (stereo partly drawn) [Example 20, (8-(((S)-2-amino-4-methylpentyl)oxy)-5-(chloromethyl)-5H-chromeno[3,4-c]pyridin-5-yl)methanol], with 7.00 to 8.00; and `CC(C)C[C@H](N)COc1cc2c(cc1C#N)-c1ccncc1CO2` [Example 23, (S)-8-(2-amino-4-methylpentyloxy)-5H-chromeno[3,4-c]pyridine-9-carbonitrile], with 8.00 to 9.00. Turning to `CC(C)C[C@H](N)COc1ccc2c(c1)OC(C)c1cnc(N)cc1-2` (stereo partly drawn) [Example 29, 8-(((S)-2-amino-4-methylpentyl)oxy)-5-methyl-5H-chromeno[3,4-c]pyridin-2-amine], the negative logarithm of the IC50 (pIC50) at GST-Xa-hAAK1 (listed as IC50 ranges) is 7.00 to 8.00. The same measure, in the same setting: the figure for `CC(=O)Nc1cc2c(cn1)C(C)Oc1cc(OC[C@@H](N)CC(C)C)ccc1-2` (stereo partly drawn) [Example 30, N-(8-(((S)-2-amino-4-methylpentyl)oxy)-5-methyl-5H-chromeno[3,4-c]pyridin-2-yl)acetamide] is 7.00 to 8.00. Still for that read-out and setting: then `Cc1nccc2c1c(=O)oc1cc(OC[C@@H](N)CC(C)C)ccc12` [Example 34, (S)-8-((2-amino-4-methylpentyl)oxy)-4-methyl-5H-chromeno[3,4-c]pyridin-5-one], with 7.00 to 8.00. On to `Cc1cc2c(cn1)COc1cc(OC[C@@H](N)CC(C)C)ccc1-2` [Example 39, (S)-4-methyl-1-((2-methyl-5H-chromeno[3,4-c]pyridin-8-yl)oxy)pentan-2-amine], for which the negative logarithm of the IC50 (pIC50) on GST-Xa-hAAK1 (listed as IC50 ranges) was 6.00 to 7.00.

For the compound `CC(=O)Nc1cc2c(cn1)COc1cc(OC[C@H](N)CC(C)C)ccc1-2` [Example 40, (R)-N-(8-(2-amino-4-methylpentyloxy)-5H-chromeno[3,4-c]pyridin-2-yl)acetamide], at GST-Xa-hAAK1 (listed as IC50 ranges), the negative-log IC50 (pIC50) was 8.00 to 9.00.

For the origin of these results see patent publication US8703953B2, “Aryl ether-base kinase inhibitors” (Bristol-Myers Squibb Company, priority 2012, dated 2014).
